The IC50 is the concentration needed to halve the response being measured.

Where only a bound is given, the exact number is not on record here.

In one assay the test system is IL-12. The experiment in a line: Human in vitro assay: inhibition of IL-12 production in stimulated human PBMC or THP-1 cells (ELISA). The settings on record: read-out: IC50 Range (in vitro IC50 for IL-12). It counts as cell-based. The source says:
The biological activities of a compound of the invention can be evaluated by a number of cell-based assays. One of such assays can be conducted using cells from human peripheral blood mononuclear cells (PBMC) or human monocytic cell line (THP-1). The cells are stimulated with a combination of human interferon-γ (IFNγ) and lipopolysaccharide or a combination of IFNγ and Staphylococcus aureus Cowan I in the presence of a test compound. The level of inhibition of IL-12 production can be measured by determining the amount of p70 by using a sandwich ELISA assay with anti-human IL-12 antibodies. IC50 of the test compound can then be determined. Specifically, PBMC or THP-1 cells are incubated with the test compound. Cell viability was assessed using the bioreduction of MTS [3-(4,5-dimethylthiazol-2-yl)-5-(3-carboxymethoxyphenyl)-2-(4-sulfophenyl)-2H-tetrazolium] (Promega, Madison, Wis.).
8. Reagents. Staphylococcus aureus Cowan I (SAC) was obtained from Calbiochem (La Jolla, Calif.), and lipopolysaccharide (LPS, Serratia marscencens) was obtained from Sigma (St. Louis, Mo.). Human and mouse recombinant IFNγ were purchased from Boehringer Mannheim (Mannheim, Germany) and Pharmingen (San Diego, Calif.), respectively.
9. Human In Vitro Assay. Human PBMC were isolated by centrifugation using Ficoll-Paque (Pharmacia Biotech, Uppsala, Sweden) and prepared in RPMI medium supplemented with 10% fetal calf serum (FCS), 100 U/mL penicillin, and 100 μg/mL streptomycin. PBMC were plated in wells of a 96-well plate at a concentration of 5×10^5 cells/well, and primed by adding IFNγ (30 U/mL) for 22 h and stimulated by adding LPS (1 μg/mL), or by adding IFNγ (100 U/mL) and then stimulated by adding SAC (0.01%). A test pyrimidine compound was dissolved in DMSO, and added to wells of the 96-well plate. The final DMSO concentration was adjusted to 0.25% in all cultures, including the compound-free control. Human THP-1 cells were plated in wells, primed by adding IFNγ (100 U/mL) for 22 h and stimulated by adding SAC (0.025%) in the presence of different concentrations of the pyrimidine compound. Cell-free supernatants were taken 18 h later for measurement of cytokines. Cell viability was assessed using the bioreduction of MTS. Cell survival was estimated by determining the ratio of the absorbance in compound-treated groups versus compound-free control.
10. The supernatant was assayed for the amount of […], IL-12p70, or IL-10 by using a sandwich ELISA with anti-human antibodies, i.e., a Human IL-12 p40 ELISA kit from R&D Systems (Berkeley, Calif.), and a Human IL-12 p70 or IL-10 ELISA kit from Endogen (Cambridge, Mass.). Assays were based on the manufacturer's instructions.
The biological activities of compounds of the invention were tested on human PBMC or THP-1 cells.
A general note: ELISA stands for enzyme-linked immunosorbent assay.
In the case of `Cc1ccc2c(c1)/C(=N/Nc1cc(N3CCOCC3)nc(OCCN3CCOCC3)n1)C(=O)N2` [Compound 1, 5-methyl-3-{[6-morpholin-4-yl-2-(2-morpholin-4-yl-ethoxy)-pyrimidin-4-yl]-hydrazono}-1,3-dihydro-indol-2-one], the IC50 was less than 1000 nM.

With `Cc1ccc2c(c1)/C(=N/Nc1cc(N3CCOCC3)nc(OCCN3CCOCC3)n1)CCO2` [Compound 2, N-(6-Methyl-chroman-4-ylidene)-N′-[6-morpholin-4-yl-2-(2-morpholin-4-yl-ethoxy)-pyrimidin-4-yl]-hydrazine], the half-maximal inhibitory concentration (IC50) was less than 1000 nM.

Regarding `c1ccc2c(c1)CC/C2=N\Nc1cc(N2CCOCC2)nc(OCCN2CCOCC2)n1` [Compound 4, N-(Indan-1-ylidene)-N′-[6-morpholin-4-yl-2-(2-morpholin-4-yl-ethoxy)-pyrimidin-4-yl]-hydrazine], the IC50 was no less than 1000 nM.

Turning to `c1ccc2c(c1)OC/C2=N\Nc1cc(N2CCOCC2)nc(OCCN2CCOCC2)n1` [Compound 5, N-(Benzofuran-3-ylidene)-N′-[6-morpholin-4-yl-2-(2-morpholin-4-yl-ethoxy)-pyrimidin-4-yl]-hydrazine], the IC50 was no less than 1000 nM.

On to `CC1C/C(=N/Nc2cc(N3CCOCC3)nc(OCCN3CCOCC3)n2)c2ccccc21` (stereo not shown) [Compound 6, N-(3-Methyl-indan-1-ylidene)-N′-[6-morpholin-4-yl-2-(2-morpholin-4-yl-ethoxy)-pyrimidin-4-yl]-hydrazine], for which the IC50 was no less than 1000 nM.

With `Cc1cccc2c1CC/C2=N\Nc1cc(N2CCOCC2)nc(OCCN2CCOCC2)n1` [Compound 7, N-(4-Methyl-indan-1-ylidene)-N′-[6-morpholin-4-yl-2-(2-morpholin-4-yl-ethoxy)-pyrimidin-4-yl]-hydrazine], the IC50 was no less than 1000 nM.

Turning to `COc1ccc2c(c1)CC/C2=N\Nc1cc(N2CCOCC2)nc(OCCN2CCOCC2)n1` [Compound 8, N-(5-Methoxy-indan-1-ylidene)-N′-[6-morpholin-4-yl-2-(2-morpholin-4-yl-ethoxy)-pyrimidin-4-yl]-hydrazine], the half-inhibitory concentration (IC50) was no less than 1000 nM.

In the case of `c1ccc2c(c1)CC(=NNc1cc(N3CCOCC3)nc(OCCN3CCOCC3)n1)C2` [Compound 10, N-(Indan-2-ylidene)-N′-[6-morpholin-4-yl-2-(2-morpholin-4-yl-ethoxy)-pyrimidin-4-yl]-hydrazine], the IC50 was no less than 1000 nM.

On to `c1ccc2c(c1)CCC/C2=N\Nc1cc(N2CCOCC2)nc(OCCN2CCOCC2)n1` [Compound 11, N-(3,4-Dihydro-2H-naphthalen-1-ylidene)-N′-[6-morpholin-4-yl-2-(2-morpholin-4-yl-ethoxy)-pyrimidin-4-yl]-hydrazine], for which the IC50 was no less than 1000 nM.

In the case of `c1ccc2c(c1)OCC/C2=N\Nc1cc(N2CCOCC2)nc(OCCN2CCOCC2)n1` [Compound 12, N-(Chroman-4-ylidene)-N′-[6-morpholin-4-yl-2-(2-morpholin-4-yl-ethoxy)-pyrimidin-4-yl]-hydrazine], the IC50 was no less than 1000 nM.

`COc1ccc2c(c1)CCC/C2=N\Nc1cc(N2CCOCC2)nc(OCCN2CCOCC2)n1` [Compound 13, N-(6-Methoxy-3,4-dihydro-2H-naphthalen-1-ylidene)-N′-[6-morpholin-4-yl-2-(2-morpholin-4-yl-ethoxy)-pyrimidin-4-yl]-hydrazine]: the IC50 was less than 1000 nM.

As for `COc1ccc2c(c1)/C(=N/Nc1cc(N3CCOCC3)nc(OCCN3CCOCC3)n1)CCC2` [Compound 14, N-(7-Methoxy-3,4-dihydro-2H-naphthalen-1-ylidene)-N′-[6-morpholin-4-yl-2-(2-morpholin-4-yl-ethoxy)-pyrimidin-4-yl]-hydrazine], the 50% inhibitory concentration (IC50) is less than 1000 nM.

On to `O=[N+]([O-])c1ccc2c(c1)/C(=N/Nc1cc(N3CCOCC3)nc(OCCN3CCOCC3)n1)CCC2` [Compound 15, N-(7-Nitro-3,4-dihydro-2H-naphthalen-1-ylidene)-N′-[6-morpholin-4-yl-2-(2-morpholin-4-yl-ethoxy)-pyrimidin-4-yl]-hydrazine], for which the IC50 was less than 1000 nM.

With `Oc1ccc2c(c1)CCC/C2=N\Nc1cc(N2CCOCC2)nc(OCCN2CCOCC2)n1` [Compound 16, N-(6-Hydroxy-3,4-dihydro-2H-naphthalen-1-ylidene)-N′-[6-morpholin-4-yl-2-(2-morpholin-4-yl-ethoxy)-pyrimidin-4-yl]-hydrazine], the IC50 is less than 1000 nM.

In the case of `Cc1cc(C)c2c(c1)/C(=N/Nc1cc(N3CCOCC3)nc(OCCN3CCOCC3)n1)CCC2` [Compound 17, N-(5,7-Dimethyl-3,4-dihydro-2H-naphthalen-1-ylidene)-N′-[6-morpholin-4-yl-2-(2-morpholin-4-yl-ethoxy)-pyrimidin-4-yl]-hydrazine], the IC50 is less than 1000 nM.

`CC1CC/C(=N\Nc2cc(N3CCOCC3)nc(OCCN3CCOCC3)n2)c2ccccc21` (stereo not shown) [Compound 19, N-(4-Methyl-3,4-dihydro-2H-naphthalen-1-ylidene)-N′-[6-morpholin-4-yl-2-(2-morpholin-4-yl-ethoxy)-pyrimidin-4-yl]-hydrazine]: the IC50 was no less than 1000 nM.

As for `CN1C(=O)/C(=N/Nc2cc(N3CCOCC3)nc(OCCN3CCOCC3)n2)c2ccccc21` [Compound 20, 1-Methyl-3-{[6-morpholin-4-yl-2-(2-morpholin-4-yl-ethoxy)-pyrimidin-4-yl]-hydrazono}-1,3-dihydro-indol-2-one], the IC50 is no less than 1000 nM.

As to `O=C1OCCN1CCOc1nc(N/N=C2\CCCc3cc(O)ccc32)cc(N2CCOCC2)n1` [Compound 22, 3-(2-{4-[N′-(6-Hydroxy-3,4-dihydro-2H-naphthalen-1-ylidene)-hydrazino]-6-morpholin-4-yl-pyrimidin-2-yloxy}-ethyl)-oxazolidin-2-one], the half-maximal inhibitory concentration (IC50) was less than 1000 nM.

As for `CC(C)(O)CCc1nc(N/N=C2\CCCc3cc(O)ccc32)cc(N2CCOCC2)n1` [Compound 24, 5-{[2-(3-Hydroxy-3-methyl-butyl)-6-morpholin-4-yl-pyrimidin-4-yl]-hydrazono}-5,6,7,8-tetrahydro-naphthalen-2-ol], the IC50 is no less than 1000 nM.

On to `Clc1ccc2c(c1)/C(=N/Nc1cc(N3CCOCC3)nc(OCCN3CCOCC3)n1)CCS2` [Compound 37, N-(6-Chloro-thiochroman-4-ylidene)-N′-[6-morpholin-4-yl-2-(2-morpholin-4-yl-ethoxy)-pyrimidin-4-yl]-hydrazine], for which the 50% inhibitory concentration (IC50) is less than 1000 nM.

Regarding `O=S1(=O)CC/C(=N\Nc2cc(N3CCOCC3)nc(OCCN3CCOCC3)n2)c2cc(Cl)ccc21` [Compound 38, N-(6-Chloro-1,1-dioxo-1λ^6-thiochroman-4-ylidene)-N′-[6-morpholin-4-yl-2-(2-morpholin-4-yl-ethoxy)-pyrimidin-4-yl]-hydrazine], the IC50 was no less than 1000 nM.

Consider `Cc1ccc2occ/c(=N\Nc3cc(N4CCOCC4)nc(OCCN4CCOCC4)n3)c2c1` [Compound 39, N-(6-Methyl-chromen-4-ylidene)-N′-[6-morpholin-4-yl-2-(2-morpholin-4-yl-ethoxy)-pyrimidin-4-yl]-hydrazine], for which the concentration for half-maximal inhibition (IC50) is less than 1000 nM.

Take `c1cc2c(o1)CCC/C2=N\Nc1cc(N2CCOCC2)nc(OCCN2CCOCC2)n1` [Compound 41, N-(6,7-Dihydro-5H-benzofuran-4-ylidene)-N′-[6-morpholin-4-yl-2-(morpholin-4-yl-ethoxy)-pyrimidin-4-yl]-hydrazine]: the IC50 was no less than 1000 nM.

A further assay has as its system Adjuvant arthritis (AA) in female Lewis rats. Put plainly: Treatment of adjuvant arthritis in rats. It is filed as in vivo, rat. The following applies: 20 mg/kg dose, orally once a day for 7 days (day 7-14). As to the method: Adjuvant arthritis (AA) was induced in female Lewis rats by the intracutaneous injection (base of the tail) of 0.1 mL of a 10 mg/mL bacterial suspension made from ground, heat-killed Mycobacterium tuberculosis H37Ra suspended in incomplete Freund's adjuvant. Rats were given a test compound orally once a day for 7 days (day 7-14), starting day 7 after mycobacterium induction. The development of polyarthritis was monitored daily by macroscopic inspection and assignment of an arthritis index to each animal, during the critical period (days 10 to 25 post-immunization).
The intensity of polyarthritis was scored according to the following scheme: (a) Grade each paw from 0 to 3 based on erythema, swelling, and deformity of the joints: 0 for no erythema or swelling; 0.5 if swelling is detectable in at least one joint; 1 for mild swelling and erythema; 2 for swelling and erythema of both tarsus and carpus; and 3 for ankylosis and bony deformity. Maximum score for all 4 paws is thus 12. (b) Grade for other parts of the body: for each ear, 0.5 for redness and another 0.5 if knots are present; 1 for connective tissue swelling (saddle nose); and 1 for the presence of knots or kinks in the tail. The highest possible arthritic index is 16.
Experiments with the AA model were repeated four times. […] The arthritis score used in this model is a reflection of the inflammatory state of the structures monitored and the results therefore show the ability of the test compound to provide relief for this aspect of the pathology.
Consider `Cc1ccc2c(c1)/C(=N/Nc1cc(N3CCOCC3)nc(OCCN3CCOCC3)n1)CCO2` [Compound 2, N-(6-Methyl-chroman-4-ylidene)-N′-[6-morpholin-4-yl-2-(2-morpholin-4-yl-ethoxy)-pyrimidin-4-yl]-hydrazine], for which the “percent reduction in arthritic score” value is 21% reduction.

Staying with this assay, now noted: 50 mg/kg dose, orally once a day for 7 days (day 7-14).
As for `Cc1ccc2c(c1)/C(=N/Nc1cc(N3CCOCC3)nc(OCCN3CCOCC3)n1)CCO2` [Compound 2, N-(6-Methyl-chroman-4-ylidene)-N′-[6-morpholin-4-yl-2-(2-morpholin-4-yl-ethoxy)-pyrimidin-4-yl]-hydrazine], the “percent reduction in arthritic score” value amounted to 32% reduction.

Values taken from patent US20060281711A1, “IL-12 modulatory compounds” (Synta Pharmaceuticals Corp., priority 2005, published 2006).
